Active and inactive are the calls of the source.
Columns and labels:
[1] = molecular target: Dual specificity protein phosphatase 3 (Homo sapiens, UniProt P51452); test: VHR phosphatase inhibition, dose response, selectivity assay for STEP inhibitor project, biochemical (AID 602374); format: functional; conditions: read-out: IC50_Mean
[2] = molecular target: T1, Tyrosine-protein phosphatase non-receptor type 11 (Homo sapiens, UniProt Q06124); test: PTPN11 enzyme inhibitors – biochemical, selectivity assay for STEP inhibitor project, dose response (AID 602367); format: functional; conditions: read-out: IC50_Mean
T1 sequence (Q06124 whole entry): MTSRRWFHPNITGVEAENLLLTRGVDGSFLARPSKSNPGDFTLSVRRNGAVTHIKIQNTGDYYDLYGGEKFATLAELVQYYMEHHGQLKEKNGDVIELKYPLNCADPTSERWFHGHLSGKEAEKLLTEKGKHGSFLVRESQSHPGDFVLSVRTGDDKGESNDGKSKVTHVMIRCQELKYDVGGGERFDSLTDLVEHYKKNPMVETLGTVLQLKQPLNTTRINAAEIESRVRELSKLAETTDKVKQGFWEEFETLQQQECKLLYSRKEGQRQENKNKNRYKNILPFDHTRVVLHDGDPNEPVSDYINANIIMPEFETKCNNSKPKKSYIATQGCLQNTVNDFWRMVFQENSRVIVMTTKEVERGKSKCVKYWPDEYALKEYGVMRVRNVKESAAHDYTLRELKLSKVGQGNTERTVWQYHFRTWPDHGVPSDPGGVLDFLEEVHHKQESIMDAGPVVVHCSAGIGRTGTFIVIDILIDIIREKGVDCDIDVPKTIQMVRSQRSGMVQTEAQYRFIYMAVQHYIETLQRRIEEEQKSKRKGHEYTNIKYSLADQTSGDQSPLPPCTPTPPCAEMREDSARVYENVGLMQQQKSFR

[3] = molecular target: T2, Tyrosine-protein phosphatase non-receptor type 22 (Homo sapiens, UniProt Q9Y2R2); test: lymphoid phosphatase LYP inhibitors – biochemical, selectivity assay for STEP inhibitor project, dose response (AID 624241); format: functional
T2 sequence (Q9Y2R2 whole entry): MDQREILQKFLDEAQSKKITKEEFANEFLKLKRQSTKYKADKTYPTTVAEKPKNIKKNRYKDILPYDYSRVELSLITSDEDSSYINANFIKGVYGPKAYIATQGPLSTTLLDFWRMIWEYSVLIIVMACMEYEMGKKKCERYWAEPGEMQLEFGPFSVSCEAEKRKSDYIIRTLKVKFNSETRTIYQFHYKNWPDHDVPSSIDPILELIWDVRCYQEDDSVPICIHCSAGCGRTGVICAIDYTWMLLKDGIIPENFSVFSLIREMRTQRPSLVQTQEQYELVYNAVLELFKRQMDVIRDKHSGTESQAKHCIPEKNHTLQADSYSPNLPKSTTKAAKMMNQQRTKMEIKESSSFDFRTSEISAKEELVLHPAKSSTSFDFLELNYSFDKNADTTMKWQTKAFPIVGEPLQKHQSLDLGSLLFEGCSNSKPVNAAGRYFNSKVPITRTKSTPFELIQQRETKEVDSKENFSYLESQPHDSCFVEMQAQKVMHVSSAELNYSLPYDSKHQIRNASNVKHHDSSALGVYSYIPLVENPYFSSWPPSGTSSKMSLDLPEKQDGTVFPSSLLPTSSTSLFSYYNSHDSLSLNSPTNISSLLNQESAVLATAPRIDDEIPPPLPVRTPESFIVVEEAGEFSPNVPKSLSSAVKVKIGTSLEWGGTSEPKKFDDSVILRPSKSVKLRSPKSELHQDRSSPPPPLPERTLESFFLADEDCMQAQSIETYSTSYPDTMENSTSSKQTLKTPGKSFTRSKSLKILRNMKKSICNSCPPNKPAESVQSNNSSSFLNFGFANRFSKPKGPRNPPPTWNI

[4] = molecular target: T3, Tyrosine-protein phosphatase non-receptor type 5 (Homo sapiens, UniProt P54829); test: PTPN5 enzyme inhibition – biochemical, fluorescence intensity, uHTS hits, confirmation (AID 602372); format: functional; conditions: read-out: IC50_Mean
T3 sequence (P54829 whole entry): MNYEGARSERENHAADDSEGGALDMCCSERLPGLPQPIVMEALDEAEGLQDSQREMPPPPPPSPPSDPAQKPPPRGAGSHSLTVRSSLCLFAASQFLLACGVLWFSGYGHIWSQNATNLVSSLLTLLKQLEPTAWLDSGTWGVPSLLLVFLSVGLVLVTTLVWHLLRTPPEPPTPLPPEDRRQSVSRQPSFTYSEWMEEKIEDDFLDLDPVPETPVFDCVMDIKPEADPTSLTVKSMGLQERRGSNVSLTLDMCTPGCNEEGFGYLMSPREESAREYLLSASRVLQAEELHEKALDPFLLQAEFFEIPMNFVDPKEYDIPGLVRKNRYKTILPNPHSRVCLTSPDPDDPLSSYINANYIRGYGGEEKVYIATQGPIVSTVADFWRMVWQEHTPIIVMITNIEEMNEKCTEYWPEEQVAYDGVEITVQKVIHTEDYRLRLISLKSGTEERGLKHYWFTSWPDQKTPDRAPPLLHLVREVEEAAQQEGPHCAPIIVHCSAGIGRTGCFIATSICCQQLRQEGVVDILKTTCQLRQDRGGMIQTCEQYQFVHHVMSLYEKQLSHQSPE

[5] = molecular target: T4, Carboxy-terminal domain RNA polymerase II polypeptide A small phosphatase 1 (Homo sapiens, UniProt Q9GZU7); test: CTDSP1 inhibitors, concentration-response, biochemical, absorbance readout, ultra-high-throughput screen actives (AID 540297); format: functional
T4 sequence (Q9GZU7 whole entry): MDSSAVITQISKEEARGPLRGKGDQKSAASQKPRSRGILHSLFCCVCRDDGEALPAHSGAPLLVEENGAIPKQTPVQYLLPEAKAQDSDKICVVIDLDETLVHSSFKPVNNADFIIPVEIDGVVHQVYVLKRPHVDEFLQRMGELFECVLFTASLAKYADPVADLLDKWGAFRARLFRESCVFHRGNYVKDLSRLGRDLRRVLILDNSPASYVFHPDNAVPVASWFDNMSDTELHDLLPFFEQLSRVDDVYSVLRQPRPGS

[6] = molecular target: T5, Zinc finger protein mex-5 (Caenorhabditis elegans, UniProt Q9XUB2); test: potency of MEX-5 RNA-binding blockers – biochemical, C. elegans, fluorescence polarization, dose response (AID 1960)
T5 sequence (Q9XUB2 whole entry): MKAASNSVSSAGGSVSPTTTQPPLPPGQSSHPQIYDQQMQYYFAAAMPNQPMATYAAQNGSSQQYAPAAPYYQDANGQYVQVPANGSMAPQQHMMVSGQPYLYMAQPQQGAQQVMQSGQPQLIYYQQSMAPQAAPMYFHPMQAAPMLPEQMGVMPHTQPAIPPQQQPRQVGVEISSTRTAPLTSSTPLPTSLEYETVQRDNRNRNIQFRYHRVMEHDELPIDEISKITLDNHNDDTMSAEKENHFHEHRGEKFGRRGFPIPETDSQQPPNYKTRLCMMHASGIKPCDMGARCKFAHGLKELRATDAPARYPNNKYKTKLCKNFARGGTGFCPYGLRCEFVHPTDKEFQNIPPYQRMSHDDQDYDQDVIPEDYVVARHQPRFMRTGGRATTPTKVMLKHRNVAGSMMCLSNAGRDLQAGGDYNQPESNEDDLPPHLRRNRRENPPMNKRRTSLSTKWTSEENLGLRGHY

[7] = molecular target: T6, RNA-binding protein pos-1 (Caenorhabditis elegans, UniProt G5EF15); test: disruptors of C. elegans POS-1 RNA interaction – biochemical, fluorescence polarization, dose response (AID 1964);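 also: purified POS-1 fused to maltose binding protein made in E. coli; potency of compounds blocking POS-1 binding to fluorescent RNA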
T6 sequence (G5EF15 whole entry): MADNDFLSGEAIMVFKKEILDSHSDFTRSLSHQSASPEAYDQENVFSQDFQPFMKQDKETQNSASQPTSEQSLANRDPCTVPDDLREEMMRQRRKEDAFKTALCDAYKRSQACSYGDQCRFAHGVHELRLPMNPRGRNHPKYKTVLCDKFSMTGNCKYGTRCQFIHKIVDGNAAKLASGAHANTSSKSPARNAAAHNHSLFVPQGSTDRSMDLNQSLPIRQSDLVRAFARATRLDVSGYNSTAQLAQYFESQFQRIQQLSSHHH

[8] = molecular target: T7, Protein disulfide-isomerase (Homo sapiens, UniProt P07237); test: inhibition of PDI-mediated insulin reduction – biochemical, turbidity, absorbance, cherry-picked samples, set 2, dose response (AID 624274); format: functional
Leucine aminopeptidase = molecular target: T8, Leucine aminopeptidase (Plasmodium falciparum 3D7, UniProt Q8IL11); test: P. falciparum M17LAP inhibitors, primary screen, biochemical, fluorogenic H-Leu-NHMec substrate, 1536-well (AID 1619); format: functional
T8 sequence (Q8IL11 whole entry): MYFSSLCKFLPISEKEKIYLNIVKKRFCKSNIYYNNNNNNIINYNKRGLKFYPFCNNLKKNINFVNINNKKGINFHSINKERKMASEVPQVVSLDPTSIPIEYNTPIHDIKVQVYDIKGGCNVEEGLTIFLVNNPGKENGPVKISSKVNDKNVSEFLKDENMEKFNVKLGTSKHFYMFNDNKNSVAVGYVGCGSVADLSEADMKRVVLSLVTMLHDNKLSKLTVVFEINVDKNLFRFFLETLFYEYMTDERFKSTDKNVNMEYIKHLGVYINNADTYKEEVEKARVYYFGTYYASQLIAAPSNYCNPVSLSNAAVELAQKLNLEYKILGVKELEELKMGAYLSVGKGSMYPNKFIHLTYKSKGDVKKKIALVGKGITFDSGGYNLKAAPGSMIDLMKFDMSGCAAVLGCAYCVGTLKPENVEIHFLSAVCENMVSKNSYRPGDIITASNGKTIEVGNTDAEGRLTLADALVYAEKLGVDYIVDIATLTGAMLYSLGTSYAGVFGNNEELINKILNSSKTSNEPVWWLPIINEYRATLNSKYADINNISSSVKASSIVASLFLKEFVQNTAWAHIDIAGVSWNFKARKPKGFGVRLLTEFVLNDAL

[9] = molecular target: T7, Protein disulfide-isomerase; test: inhibition of PDI-driven insulin aggregation – biochemical, turbidity, absorbance, cherry-picked samples, dose response (AID 602350); format: functional
ORF 73 = ORF 73 (Human herpesvirus 8, UniProt O40947); test: KSHV LANA DNA-binding disruption – biochemical, fluorescence polarization, cherry-picked samples, dose response (AID 504725); parameters: species or system Human gammaherpesvirus 8;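 also: fluorescence polarization of a labeled DNA duplex reporting LANA DNA binding; potency is for inhibitors that block LANA binding to the DNA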
[10] = molecular target: T9, Histone-lysine N-methyltransferase NSD2 (Homo sapiens, UniProt O96028); format: biochemical
T9 sequence (O96028 whole entry): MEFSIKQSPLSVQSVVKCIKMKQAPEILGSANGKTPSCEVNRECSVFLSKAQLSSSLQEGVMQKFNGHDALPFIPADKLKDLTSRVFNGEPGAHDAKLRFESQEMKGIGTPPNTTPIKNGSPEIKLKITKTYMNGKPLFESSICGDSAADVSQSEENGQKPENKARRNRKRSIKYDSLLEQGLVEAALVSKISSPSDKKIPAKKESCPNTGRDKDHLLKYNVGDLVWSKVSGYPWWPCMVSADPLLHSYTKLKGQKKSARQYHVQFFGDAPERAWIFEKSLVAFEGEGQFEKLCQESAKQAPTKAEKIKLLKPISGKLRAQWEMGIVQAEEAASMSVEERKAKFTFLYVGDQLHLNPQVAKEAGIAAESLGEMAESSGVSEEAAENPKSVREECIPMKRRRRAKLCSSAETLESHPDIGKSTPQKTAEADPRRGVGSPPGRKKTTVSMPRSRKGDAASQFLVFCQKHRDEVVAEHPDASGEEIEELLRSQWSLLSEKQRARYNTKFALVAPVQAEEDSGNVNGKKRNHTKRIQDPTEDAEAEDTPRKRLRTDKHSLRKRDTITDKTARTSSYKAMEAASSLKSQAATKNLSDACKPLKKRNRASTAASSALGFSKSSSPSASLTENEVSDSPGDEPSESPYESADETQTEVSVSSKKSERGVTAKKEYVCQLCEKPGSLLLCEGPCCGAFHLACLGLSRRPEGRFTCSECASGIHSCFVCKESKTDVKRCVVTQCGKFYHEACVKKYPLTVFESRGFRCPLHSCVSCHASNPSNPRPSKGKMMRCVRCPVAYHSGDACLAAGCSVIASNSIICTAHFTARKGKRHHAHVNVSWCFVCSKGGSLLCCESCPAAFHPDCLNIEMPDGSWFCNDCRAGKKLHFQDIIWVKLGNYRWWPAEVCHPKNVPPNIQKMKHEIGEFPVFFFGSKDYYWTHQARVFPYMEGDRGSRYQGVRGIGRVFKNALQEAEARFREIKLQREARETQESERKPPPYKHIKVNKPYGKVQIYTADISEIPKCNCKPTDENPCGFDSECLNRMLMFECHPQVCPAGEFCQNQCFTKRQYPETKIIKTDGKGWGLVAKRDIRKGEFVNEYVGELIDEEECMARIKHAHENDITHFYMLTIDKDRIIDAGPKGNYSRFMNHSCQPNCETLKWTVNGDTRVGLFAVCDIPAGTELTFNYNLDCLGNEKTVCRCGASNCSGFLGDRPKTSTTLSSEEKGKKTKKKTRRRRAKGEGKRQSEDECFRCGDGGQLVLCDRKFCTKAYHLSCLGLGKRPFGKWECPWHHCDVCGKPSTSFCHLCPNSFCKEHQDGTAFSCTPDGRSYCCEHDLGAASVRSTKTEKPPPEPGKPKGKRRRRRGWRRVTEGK

T7 sequence (P07237 whole entry): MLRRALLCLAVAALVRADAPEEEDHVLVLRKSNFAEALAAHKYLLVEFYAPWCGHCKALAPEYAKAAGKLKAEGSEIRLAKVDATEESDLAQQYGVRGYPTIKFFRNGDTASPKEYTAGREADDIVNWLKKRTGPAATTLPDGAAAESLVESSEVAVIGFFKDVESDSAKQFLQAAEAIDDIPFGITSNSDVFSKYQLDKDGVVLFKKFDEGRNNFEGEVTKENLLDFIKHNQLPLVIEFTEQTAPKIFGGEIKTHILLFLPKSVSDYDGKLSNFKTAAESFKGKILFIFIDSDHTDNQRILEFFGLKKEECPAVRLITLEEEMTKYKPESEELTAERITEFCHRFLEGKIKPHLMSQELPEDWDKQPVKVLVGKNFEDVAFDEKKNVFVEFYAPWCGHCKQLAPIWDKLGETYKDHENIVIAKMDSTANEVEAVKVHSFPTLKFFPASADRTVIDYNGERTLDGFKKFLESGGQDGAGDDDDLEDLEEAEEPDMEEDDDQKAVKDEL
Chain of Dual specificity protein phosphatase 3 (P51452 whole entry): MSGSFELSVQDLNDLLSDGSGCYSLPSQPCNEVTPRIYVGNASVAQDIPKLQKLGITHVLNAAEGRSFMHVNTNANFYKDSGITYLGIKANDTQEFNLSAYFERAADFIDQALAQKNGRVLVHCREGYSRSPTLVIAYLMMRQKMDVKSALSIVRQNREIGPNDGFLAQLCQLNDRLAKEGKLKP
Chain of ORF 73 (O40947 whole entry): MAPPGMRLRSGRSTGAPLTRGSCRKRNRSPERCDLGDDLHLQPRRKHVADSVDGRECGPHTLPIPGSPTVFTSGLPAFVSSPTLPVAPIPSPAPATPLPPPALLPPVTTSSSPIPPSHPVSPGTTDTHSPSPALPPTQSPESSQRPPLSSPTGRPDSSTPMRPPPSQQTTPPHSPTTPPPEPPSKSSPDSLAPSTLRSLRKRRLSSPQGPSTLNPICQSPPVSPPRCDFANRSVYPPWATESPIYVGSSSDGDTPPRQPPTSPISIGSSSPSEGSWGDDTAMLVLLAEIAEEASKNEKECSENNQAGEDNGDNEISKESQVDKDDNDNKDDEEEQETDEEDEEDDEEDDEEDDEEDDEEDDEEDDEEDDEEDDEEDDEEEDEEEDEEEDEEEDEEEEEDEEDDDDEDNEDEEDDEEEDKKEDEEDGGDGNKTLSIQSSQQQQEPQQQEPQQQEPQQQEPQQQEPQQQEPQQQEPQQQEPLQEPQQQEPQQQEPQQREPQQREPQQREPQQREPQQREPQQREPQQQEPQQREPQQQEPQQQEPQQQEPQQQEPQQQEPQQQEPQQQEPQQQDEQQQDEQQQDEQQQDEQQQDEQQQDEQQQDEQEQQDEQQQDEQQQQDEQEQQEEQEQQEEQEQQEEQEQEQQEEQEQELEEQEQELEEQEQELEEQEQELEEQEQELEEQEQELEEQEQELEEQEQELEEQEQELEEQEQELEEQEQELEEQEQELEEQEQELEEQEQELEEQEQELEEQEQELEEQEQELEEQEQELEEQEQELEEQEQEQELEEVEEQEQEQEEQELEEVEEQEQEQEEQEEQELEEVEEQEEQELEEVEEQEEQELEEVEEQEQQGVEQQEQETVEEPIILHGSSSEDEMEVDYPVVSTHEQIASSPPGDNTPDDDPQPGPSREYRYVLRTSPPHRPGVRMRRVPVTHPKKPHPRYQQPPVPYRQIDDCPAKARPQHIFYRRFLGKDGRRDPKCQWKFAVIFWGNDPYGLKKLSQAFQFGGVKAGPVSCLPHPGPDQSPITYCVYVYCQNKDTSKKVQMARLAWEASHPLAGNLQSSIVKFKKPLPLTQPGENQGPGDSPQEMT

| IC50 [1] | IC50 [2] | IC50 [3] | IC50 [4] | IC50 [5] | EC50 [6] | EC50 [7] | AC50 [8] | IC50 (Leucine aminopeptidase) | AC50 [9] | AC50 (ORF 73) | AC50 [10] | Structure (SMILES) |
| --- | --- | --- | --- | --- | --- | --- | --- | --- | --- | --- | --- | --- |
| 4.31 µM (active) | 5.27 µM (active) | 60.2 µM (inactive) | 16.9 µM (active) | 8.49 µM (active) | – | – | – | – | – | – | – | COc1ccc2cc3c(N)nn(C(=O)c4cccc(F)c4)c3nc2c1 |
| – | – | – | – | – | 61.6 µM (active) | 270 µM (active) | 0.009 µM (active) | 12.8 µM (active) | < 0.009 µM (active) | 2.89 µM (active) | 7.35 µM (active) | O=C(O)CCCCCn1c(SCC(=O)c2ccc(O)c(O)c2)nc2ccsc2c1=O |

From ChEMBL document CHEMBL1201862, “PubChem BioAssay data set” (2004)
